# In paper PMC4747190, “Flavokawain A induces deNEDDylation and Skp2 degradation leading to inhibition of tumorigenesis and cancer progression in the TRAMP transgenic mouse model” (Oncotarget, 2015):
# Biological target: T1, NEDD8-activating enzyme (NAE), Uba3 subunit (Homo sapiens, UniProt Q8TBC4)
# T1 construct: His-APP-BP1, His-Uba3 (kit enzymes); with APPBP1 (NAE1); Ubc12 and NEDD8 present in the assay
# Test: in vitro NEDD8 conjugation assay with purified E1 (APPBP1/Uba3), Ubc12 and NEDD8; non-reducing western blot of Ubc12-NEDD8
# Format: biochemical
# T1 sequence (Q8TBC4 2-463): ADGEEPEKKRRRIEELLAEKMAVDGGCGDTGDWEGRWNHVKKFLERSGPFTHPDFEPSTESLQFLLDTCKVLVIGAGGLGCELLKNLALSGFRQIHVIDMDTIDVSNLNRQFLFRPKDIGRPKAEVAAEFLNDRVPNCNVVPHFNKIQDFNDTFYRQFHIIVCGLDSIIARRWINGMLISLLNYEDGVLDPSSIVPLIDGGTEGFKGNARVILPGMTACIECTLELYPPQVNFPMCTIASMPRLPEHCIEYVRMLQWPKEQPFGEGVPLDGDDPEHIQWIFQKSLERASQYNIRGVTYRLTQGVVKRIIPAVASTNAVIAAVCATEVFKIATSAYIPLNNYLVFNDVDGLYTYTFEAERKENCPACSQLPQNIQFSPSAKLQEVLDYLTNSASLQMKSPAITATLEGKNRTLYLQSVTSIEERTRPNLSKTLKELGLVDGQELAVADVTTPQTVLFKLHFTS
# T1 sequence (Q13564 2-534 partner): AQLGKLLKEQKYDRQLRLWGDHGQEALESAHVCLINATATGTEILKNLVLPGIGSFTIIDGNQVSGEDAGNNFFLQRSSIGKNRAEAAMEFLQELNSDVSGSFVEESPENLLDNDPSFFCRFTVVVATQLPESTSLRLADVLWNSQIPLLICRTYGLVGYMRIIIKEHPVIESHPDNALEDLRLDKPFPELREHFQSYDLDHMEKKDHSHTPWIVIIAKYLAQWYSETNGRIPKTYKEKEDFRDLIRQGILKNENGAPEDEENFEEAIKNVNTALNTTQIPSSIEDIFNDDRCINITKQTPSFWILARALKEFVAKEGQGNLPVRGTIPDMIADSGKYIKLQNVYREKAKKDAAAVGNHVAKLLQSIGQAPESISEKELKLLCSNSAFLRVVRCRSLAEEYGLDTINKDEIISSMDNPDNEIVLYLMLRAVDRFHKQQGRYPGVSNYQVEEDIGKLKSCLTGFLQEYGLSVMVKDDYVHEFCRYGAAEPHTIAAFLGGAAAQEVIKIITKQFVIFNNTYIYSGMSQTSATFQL
# T1 sequence (P61081 whole entry partner): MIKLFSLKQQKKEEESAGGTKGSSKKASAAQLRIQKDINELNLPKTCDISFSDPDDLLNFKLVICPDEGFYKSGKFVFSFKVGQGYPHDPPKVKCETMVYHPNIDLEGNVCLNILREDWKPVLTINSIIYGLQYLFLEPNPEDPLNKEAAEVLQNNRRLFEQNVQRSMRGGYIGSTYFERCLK
# T1 sequence (Q15843 1-76 partner): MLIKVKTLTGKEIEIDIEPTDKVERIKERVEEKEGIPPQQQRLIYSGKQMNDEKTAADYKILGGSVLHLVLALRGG
smiles,measurement,value
"COc1ccc(/C=C/C(=O)c2c(O)cc(OC)cc2OC)cc1 [FKA, flavokawain A]",IC50,~5 µM
